According to the NIST ThermoML archive (doi:10.1021/je0602824):

Assay: xn = mol fraction of the nth substance listed
Details: 101 kPa, Liquid

CCn1cc[n+](C)c1.O=C([O-])C(F)(F)F [1-ethyl-3-methylimidazolium trifluoroacetate] + O
Details | mass density [kg/m3] | viscosity [mPa·s]
278.15 K, x2 = 0 | 1306.89 | 78
278.15 K, x2 = 0.2042 | – | 56
278.15 K, x2 = 0.205 | 1299.84 | –
278.15 K, x2 = 0.3952 | – | 40
278.15 K, x2 = 0.3983 | 1291.27 | –
278.15 K, x2 = 0.5808 | 1278 | 25
278.15 K, x2 = 0.7565 | – | 16
278.15 K, x2 = 0.7573 | 1248.38 | –
278.15 K, x2 = 0.842 | 1216.87 | –
278.15 K, x2 = 0.9256 | 1151.47 | 6
278.15 K, x2 = 0.9667 | 1086.88 | –
278.15 K, x2 = 0.9912 | 1026.68 | –
288.15 K, x2 = 0 | 1298.81 | 48
288.15 K, x2 = 0.2042 | – | 35
288.15 K, x2 = 0.205 | 1291.82 | –
288.15 K, x2 = 0.3952 | – | 26
288.15 K, x2 = 0.3983 | 1283.25 | –
288.15 K, x2 = 0.5808 | 1269.93 | 17
288.15 K, x2 = 0.7565 | – | 11
288.15 K, x2 = 0.7573 | 1240.21 | –
288.15 K, x2 = 0.842 | 1208.86 | –
288.15 K, x2 = 0.9256 | 1144.67 | 5
288.15 K, x2 = 0.9667 | 1082.51 | –
288.15 K, x2 = 0.9912 | 1024.93 | –
298.15 K, x2 = 0 | 1290.8 | 32
298.15 K, x2 = 0.2042 | – | 24
298.15 K, x2 = 0.205 | 1283.85 | –
298.15 K, x2 = 0.3952 | – | 18
298.15 K, x2 = 0.3983 | 1275.26 | –
298.15 K, x2 = 0.5808 | 1261.85 | 12
298.15 K, x2 = 0.7565 | – | 8
298.15 K, x2 = 0.7573 | 1231.95 | –
298.15 K, x2 = 0.842 | 1200.76 | –
298.15 K, x2 = 0.9256 | 1137.65 | 4
298.15 K, x2 = 0.9667 | 1077.55 | –
298.15 K, x2 = 0.9912 | 1022.15 | –
308.15 K, x2 = 0 | 1282.85 | 23
308.15 K, x2 = 0.2042 | – | 17
308.15 K, x2 = 0.205 | 1275.92 | –
308.15 K, x2 = 0.3952 | – | 14
308.15 K, x2 = 0.3983 | 1267.29 | –
308.15 K, x2 = 0.5808 | 1253.77 | 9
308.15 K, x2 = 0.7565 | – | 6
308.15 K, x2 = 0.7573 | 1223.66 | –
308.15 K, x2 = 0.842 | 1192.57 | –
308.15 K, x2 = 0.9256 | 1130.4 | 3
308.15 K, x2 = 0.9667 | 1072.06 | –
308.15 K, x2 = 0.9912 | 1018.5 | –
318.15 K, x2 = 0 | 1274.95 | 17
318.15 K, x2 = 0.2042 | – | 13
318.15 K, x2 = 0.205 | 1268.04 | –
318.15 K, x2 = 0.3952 | – | 10
318.15 K, x2 = 0.3983 | 1259.34 | –
318.15 K, x2 = 0.5808 | 1245.67 | 8
318.15 K, x2 = 0.7565 | – | 5
318.15 K, x2 = 0.7573 | 1215.3 | –
318.15 K, x2 = 0.842 | 1184.27 | –
318.15 K, x2 = 0.9256 | 1122.93 | 3
318.15 K, x2 = 0.9667 | 1066.08 | –
318.15 K, x2 = 0.9912 | 1014.11 | –
328.15 K, x2 = 0 | 1267.12 | 13
328.15 K, x2 = 0.2042 | – | 10
328.15 K, x2 = 0.205 | 1260.21 | –
328.15 K, x2 = 0.3952 | – | 8
328.15 K, x2 = 0.3983 | 1251.41 | –
328.15 K, x2 = 0.5808 | 1237.55 | 6
328.15 K, x2 = 0.7565 | – | 5
328.15 K, x2 = 0.7573 | 1206.84 | –
328.15 K, x2 = 0.842 | 1175.86 | –
328.15 K, x2 = 0.9256 | 1115.2 | 3
328.15 K, x2 = 0.9667 | 1059.66 | –
328.15 K, x2 = 0.9912 | 1009.07 | –
338.15 K, x2 = 0 | 1259.35 | 10
338.15 K, x2 = 0.2042 | – | 8
338.15 K, x2 = 0.205 | 1252.42 | –
338.15 K, x2 = 0.3952 | – | 7
338.15 K, x2 = 0.3983 | 1243.49 | –
338.15 K, x2 = 0.5808 | 1229.41 | 6
338.15 K, x2 = 0.7565 | – | 4
338.15 K, x2 = 0.7573 | 1198.32 | –
338.15 K, x2 = 0.842 | 1167.33 | –
338.15 K, x2 = 0.9256 | 1107.28 | 2
338.15 K, x2 = 0.9667 | 1052.83 | –
338.15 K, x2 = 0.9912 | 1002.87 | –
348.15 K, x2 = 0 | 1251.63 | 9
348.15 K, x2 = 0.2042 | – | 7
348.15 K, x2 = 0.205 | 1244.66 | –
348.15 K, x2 = 0.3952 | – | 6
348.15 K, x2 = 0.3983 | 1235.59 | –
348.15 K, x2 = 0.5808 | 1221.23 | 5
348.15 K, x2 = 0.7565 | – | 4
348.15 K, x2 = 0.7573 | 1189.98 | –
348.15 K, x2 = 0.842 | 1158.69 | –
348.15 K, x2 = 0.9256 | 1099.05 | 2
348.15 K, x2 = 0.9667 | 1045.56 | –
348.15 K, x2 = 0.9912 | 997.23 | –
